The subject of this experiment is T1, MpBgl3.
T1 construct: native secreted enzyme purified from culture filtrate (cellobiose-grown), N-glycosylated
Put plainly: p-nitrophenol release, absorbance at […] nm; SigrafW fit. Format: biochemical, Malbranchea pulchella. Particulars: McIlvaine buffer pH 6.0, 50 °C.

Broadly, the Km is the concentration of substrate that gives half-maximal velocity. `O=[N+]([O-])c1ccc(O[C@@H]2O[C@H](CO)[C@@H](O)[C@H](O)[C@H]2O)cc1` [pNPG]: the Km is 330 µM.
